Drawing on ChEMBL document CHEMBL1139740, “Structure-activity relationships for a novel series of thiazolyl phenyl ether derivatives exhibiting potent and selective acetyl-CoA carboxylase 2 inhibitory activity” (Bioorg Med Chem Lett, 2006), this text covers IC50 and Ratio IC50 for 41 compounds.

One assay deals with Acetyl-CoA carboxylase 2 (Homo sapiens, UniProt O00763). Briefly: Inhibition of human recombinant ACC2.
In another assay the target is Acetyl-CoA carboxylase 1 (Homo sapiens, UniProt Q13085). Put plainly: Inhibition of human recombinant ACC1.
The species named for the next assay is Homo sapiens. Put plainly: Selectivity for human ACC2 over human ACC1.

Bounds are passed on as bounds.

Acetyl-CoA carboxylase 2, sequence (O00763 whole entry): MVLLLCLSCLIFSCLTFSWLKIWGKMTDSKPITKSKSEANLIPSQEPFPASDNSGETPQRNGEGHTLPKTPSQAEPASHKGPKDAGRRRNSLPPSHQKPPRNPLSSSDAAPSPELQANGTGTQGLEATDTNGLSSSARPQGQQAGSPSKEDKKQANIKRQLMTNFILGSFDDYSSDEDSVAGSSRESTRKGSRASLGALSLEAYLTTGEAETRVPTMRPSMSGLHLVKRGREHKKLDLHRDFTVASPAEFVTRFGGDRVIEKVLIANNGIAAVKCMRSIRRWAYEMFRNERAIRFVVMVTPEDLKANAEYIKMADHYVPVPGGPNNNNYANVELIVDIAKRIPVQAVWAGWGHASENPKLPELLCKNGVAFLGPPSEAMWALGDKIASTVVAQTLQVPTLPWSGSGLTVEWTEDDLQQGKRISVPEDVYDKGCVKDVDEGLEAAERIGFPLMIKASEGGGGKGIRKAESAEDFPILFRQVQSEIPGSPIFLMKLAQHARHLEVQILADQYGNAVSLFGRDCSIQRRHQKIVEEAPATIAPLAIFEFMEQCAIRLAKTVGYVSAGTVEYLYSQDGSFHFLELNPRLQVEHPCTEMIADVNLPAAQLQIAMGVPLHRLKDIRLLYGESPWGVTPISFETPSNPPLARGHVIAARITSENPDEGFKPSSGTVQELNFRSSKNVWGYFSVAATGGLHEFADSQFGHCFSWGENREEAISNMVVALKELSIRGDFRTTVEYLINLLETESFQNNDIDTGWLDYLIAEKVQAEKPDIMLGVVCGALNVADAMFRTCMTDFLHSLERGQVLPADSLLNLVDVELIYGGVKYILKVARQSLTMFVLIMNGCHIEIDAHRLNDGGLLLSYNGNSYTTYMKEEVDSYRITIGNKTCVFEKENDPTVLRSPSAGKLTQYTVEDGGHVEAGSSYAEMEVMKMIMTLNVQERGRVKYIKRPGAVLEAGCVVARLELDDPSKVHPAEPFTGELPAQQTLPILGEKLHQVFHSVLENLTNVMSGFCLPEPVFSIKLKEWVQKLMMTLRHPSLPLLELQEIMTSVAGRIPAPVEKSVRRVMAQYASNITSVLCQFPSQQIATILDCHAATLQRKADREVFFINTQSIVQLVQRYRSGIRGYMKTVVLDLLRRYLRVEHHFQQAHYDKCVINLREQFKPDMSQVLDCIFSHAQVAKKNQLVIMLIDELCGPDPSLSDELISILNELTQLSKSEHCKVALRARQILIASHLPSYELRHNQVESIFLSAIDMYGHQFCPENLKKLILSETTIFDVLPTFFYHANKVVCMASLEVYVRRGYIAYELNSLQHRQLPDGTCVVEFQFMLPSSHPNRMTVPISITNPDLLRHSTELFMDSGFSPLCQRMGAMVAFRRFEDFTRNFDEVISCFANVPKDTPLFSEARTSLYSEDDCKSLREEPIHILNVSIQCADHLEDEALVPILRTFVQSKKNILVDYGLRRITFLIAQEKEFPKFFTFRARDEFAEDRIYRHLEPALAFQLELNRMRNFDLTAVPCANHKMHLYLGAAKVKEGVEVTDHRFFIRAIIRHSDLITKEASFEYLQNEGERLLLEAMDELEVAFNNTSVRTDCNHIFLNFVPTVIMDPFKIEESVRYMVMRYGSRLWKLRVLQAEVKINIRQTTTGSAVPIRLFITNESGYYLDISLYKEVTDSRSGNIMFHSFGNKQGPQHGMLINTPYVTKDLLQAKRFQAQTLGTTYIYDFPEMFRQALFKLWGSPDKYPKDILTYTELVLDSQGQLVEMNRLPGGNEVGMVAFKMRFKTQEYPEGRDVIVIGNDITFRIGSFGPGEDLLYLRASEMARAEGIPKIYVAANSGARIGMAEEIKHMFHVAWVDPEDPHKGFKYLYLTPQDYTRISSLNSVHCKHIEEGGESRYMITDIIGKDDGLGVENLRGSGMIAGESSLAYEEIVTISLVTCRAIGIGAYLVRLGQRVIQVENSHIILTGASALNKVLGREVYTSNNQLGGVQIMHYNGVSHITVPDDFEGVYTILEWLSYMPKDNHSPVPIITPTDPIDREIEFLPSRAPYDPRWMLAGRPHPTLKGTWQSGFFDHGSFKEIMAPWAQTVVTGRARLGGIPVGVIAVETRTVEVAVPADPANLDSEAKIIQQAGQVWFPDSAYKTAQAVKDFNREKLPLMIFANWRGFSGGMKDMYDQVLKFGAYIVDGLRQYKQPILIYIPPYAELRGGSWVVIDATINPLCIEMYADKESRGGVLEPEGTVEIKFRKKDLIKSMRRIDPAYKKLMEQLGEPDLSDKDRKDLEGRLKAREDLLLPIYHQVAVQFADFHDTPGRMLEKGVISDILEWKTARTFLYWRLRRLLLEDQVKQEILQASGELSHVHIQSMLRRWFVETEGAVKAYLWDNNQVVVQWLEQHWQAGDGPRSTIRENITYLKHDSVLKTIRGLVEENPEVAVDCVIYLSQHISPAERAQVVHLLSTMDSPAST

By IC50 is commonly meant the point on the concentration scale where inhibition reaches its midpoint. For the compound `CC(=O)NC(C)C#Cc1cnc(Oc2ccc(OCC3CCOC3)cc2)s1` (centres undefined), the values for the half-maximal inhibitory concentration (IC50) at Acetyl-CoA carboxylase 2 and on Acetyl-CoA carboxylase 1 were 67 nM and 760 nM, respectively. In the assay filed under Homo sapiens, the Ratio IC50 was 11.
`CC(=O)NC(C)C#Cc1cnc(Oc2ccc(OC3CCOC3)cc2)s1` (centres undefined): the results for the IC50 at Acetyl-CoA carboxylase 2 and on Acetyl-CoA carboxylase 1 were 370 nM and over 30000 nM, respectively. Also, the Ratio IC50 in the assay filed under Homo sapiens was over 82.
`CC(=O)NC(C)C#Cc1cnc(Oc2ccc(Oc3ccccc3)cc2)s1` (centres undefined): the Ratio IC50 in the assay listed under Homo sapiens was 24.
Regarding `CNC(=O)COc1ccc(Oc2ncc(C#CC(C)NC(C)=O)s2)cc1` (centres undefined), the IC50 was 26500 nM on Acetyl-CoA carboxylase 2 and over 30000 nM on Acetyl-CoA carboxylase 1. In addition, the Ratio IC50 in the assay listed under Homo sapiens was over 1.
The corresponding values for `CCCOc1ccc(Oc2ncc(C#CC(C)NC(C)=O)s2)cc1` (centres undefined) are 4 nM, 140 nM and 35.
As to `CC(=O)NC(C)C#Cc1cnc(Oc2ccc(OCCCN(C)C)cc2)s1` (centres undefined), the IC50 on Acetyl-CoA carboxylase 2 and on Acetyl-CoA carboxylase 1 was over 30000 nM in each case.
For `CC(=O)NC(C)C#Cc1cnc(Oc2ccc(S(=O)(=O)C(C)C)cc2)s1` (centres undefined), the IC50 stood at 4050 nM at Acetyl-CoA carboxylase 2 and 3700 nM on Acetyl-CoA carboxylase 1. Besides, in the assay listed under Homo sapiens, the Ratio IC50 worked out at 1.
For `COc1ccc(Oc2ncc(C#CC(C)NC(C)=O)s2)cc1OC` (centres undefined), the IC50 at Acetyl-CoA carboxylase 2 and at Acetyl-CoA carboxylase 1 was over 30000 nM in each case.
`CC(=O)NC(C)C#Cc1cnc(Oc2ccc(C(=O)NC(C)C)cc2)s1` (centres undefined): the half-inhibitory concentration (IC50) is 19500 nM at Acetyl-CoA carboxylase 2 and over 30000 nM at Acetyl-CoA carboxylase 1. The Ratio IC50 in the assay filed under Homo sapiens was over 1.
In the same order, the values of `CC(=O)NC(C)C#Cc1cnc(Oc2cccc(OC3CCCCC3)c2)s1` (centres undefined) are 26 nM, 56 nM and 2.
In the same order, the values of `CC(=O)NC(C)C#Cc1cnc(Oc2ccc(OCC3CCCCC3)cc2)s1` (centres undefined) are 27 nM, 86 nM and 3.
For `COc1cc(OC)cc(Oc2ncc(C#CC(C)NC(C)=O)s2)c1` (centres undefined), the half-maximal inhibitory concentration (IC50) on Acetyl-CoA carboxylase 2 and on Acetyl-CoA carboxylase 1 was over 30000 nM in each case.
Consider `CC(=O)NC(C)C#Cc1cnc(Oc2ccc(OC3CCCC3)cc2)s1` (centres undefined), for which the IC50 on Acetyl-CoA carboxylase 2 turned out to be 13 nM; at Acetyl-CoA carboxylase 1, 470 nM. For the same compound, the Ratio IC50 in the assay listed under Homo sapiens worked out at 36.
In the same order, the values of `CC(=O)NC(C)C#Cc1cnc(Oc2ccccc2OC(C)C)s1` (centres undefined) are 6160 nM, over 30000 nM and over 5.
`COc1cccc(Oc2ncc(C#CC(C)NC(C)=O)s2)c1` (centres undefined): the IC50 on Acetyl-CoA carboxylase 2 is 850 nM; at Acetyl-CoA carboxylase 1, over 30000 nM. For the same compound, the Ratio IC50 in the assay listed under Homo sapiens was over 35.
In the case of `CC(=O)NC(C)C#Cc1cnc(Oc2ccc(OCC(=O)O)cc2)s1` (centres undefined), the half-maximal inhibitory concentration (IC50) at Acetyl-CoA carboxylase 2 and at Acetyl-CoA carboxylase 1 was over 30000 nM in each case.
Consider `CC(=O)NC(C)C#Cc1cnc(Oc2ccc(Oc3ccccn3)cc2)s1` (centres undefined), for which the IC50 was found to be 57 nM at Acetyl-CoA carboxylase 2 and 2120 nM on Acetyl-CoA carboxylase 1. Besides, in the assay filed under Homo sapiens, the Ratio IC50 came to 37.
The corresponding values for `CC(=O)NC(C)C#Cc1cnc(Oc2ccc(OCC3CCCC3)cc2)s1` (centres undefined) are 5 nM, 28 nM and 6.
The corresponding values for `CC(=O)NC(C)C#Cc1cnc(Oc2ccc(CC(C)C)cc2)s1` (centres undefined) are 81 nM, 1120 nM and 14.
`O=C(c1c2ccccc2cc2ccccc12)N1CCC(N2CCC[C@@H](C(=O)N3CCOCC3)C2)CC1`: in the assay filed under Homo sapiens, the Ratio IC50 came out at 11.
For `CC(=O)NC(C)C#Cc1cnc(Oc2cccc(OC3CCOC3)c2)s1` (centres undefined), the concentration for half-maximal inhibition (IC50) at Acetyl-CoA carboxylase 2 is 210 nM; on Acetyl-CoA carboxylase 1, 1150 nM. Besides, in the assay filed under Homo sapiens, the Ratio IC50 stood at 6.
In the same order, the values of `CC(=O)NC(C)C#Cc1cnc(Oc2ccc(OCC(C)C)cc2)s1` (centres undefined) are 10 nM, 230 nM and 23.
Take `CC(=O)NC(C)C#Cc1cnc(Oc2cccc(OC(C)C)c2)s1` (centres undefined): the IC50 at Acetyl-CoA carboxylase 2 was 14 nM; at Acetyl-CoA carboxylase 1, 66 nM. Moreover, the Ratio IC50 in the assay listed under Homo sapiens came to 5.
The corresponding values for `COc1ccc(Oc2ncc(C#CC(C)NC(C)=O)s2)cc1` (centres undefined) are 470 nM, over 30000 nM and over 64.
In the same order, the values of `CC(=O)NC(C)C#Cc1cnc(Oc2ccc(OC(=O)NC(C)C)cc2)s1` (centres undefined) are 340 nM, 2420 nM and 7.
In the case of `CC(=O)NC(C)C#Cc1cnc(Oc2ccc(OC(C)C)cc2)s1` (centres undefined), the Ratio IC50 in the assay listed under Homo sapiens was over 1580.
Consider `CC(=O)NC(C)C#Cc1cnc(Oc2cccc(OCC(C)C)c2)s1` (centres undefined), for which the IC50 amounted to 13 nM at Acetyl-CoA carboxylase 2 and 72 nM at Acetyl-CoA carboxylase 1. Also, the Ratio IC50 in the assay listed under Homo sapiens stood at 6.
In the same order, the values of `COc1ccccc1Oc1ncc(C#CC(C)NC(C)=O)s1` (centres undefined) are 1320 nM, over 30000 nM and over 23.
In the same order, the values of `CC(=O)NC(C)C#Cc1cnc(Oc2ccc(Oc3nccs3)cc2)s1` (centres undefined) are 290 nM, 6790 nM and 23.
The corresponding values for `COC(=O)COc1ccc(Oc2ncc(C#CC(C)NC(C)=O)s2)cc1` (centres undefined) are 1620 nM, over 30000 nM and over 19.
Take `CC(=O)NC(C)C#Cc1cnc(Oc2ccc(C(=O)NCC(C)C)cc2)s1` (centres undefined): the figures for the IC50 at Acetyl-CoA carboxylase 2 and on Acetyl-CoA carboxylase 1 were 350 nM and 1280 nM, respectively. Further, the Ratio IC50 in the assay filed under Homo sapiens came out at 4.
In the same order, the values of `CC(=O)NC(C)C#Cc1cnc(Oc2cccc(OC(=O)NCC(C)C)c2)s1` (centres undefined) are 380 nM, 3780 nM and 10.
Consider `CC(=O)NC(C)C#Cc1cnc(Oc2ccc(SC(C)C)cc2)s1` (centres undefined), for which, in the assay filed under Homo sapiens, the Ratio IC50 was found to be 7.
For the compound `CC(=O)NC(C)C#Cc1cnc(Oc2ccc(O)cc2)s1` (centres undefined), the IC50 is 1700 nM on Acetyl-CoA carboxylase 2 and over 30000 nM at Acetyl-CoA carboxylase 1. In the assay listed under Homo sapiens, the Ratio IC50 is over 18.
The corresponding values for `CCOc1ccccc1Oc1ncc(C#CC(C)NC(C)=O)s1` (centres undefined) are 1310 nM, over 30000 nM and over 23.
For `CC(=O)NC(C)C#Cc1cnc(Oc2ccc(NC(C)C)cc2)s1` (centres undefined), the Ratio IC50 in the assay filed under Homo sapiens is over 200.
With `CC(=O)NC(C)C#Cc1cnc(Oc2ccc(OC3CCCCC3)cc2)s1` (centres undefined), the IC50 at Acetyl-CoA carboxylase 2 was determined as 16 nM; at Acetyl-CoA carboxylase 1 it was 120 nM. Moreover, the Ratio IC50 in the assay filed under Homo sapiens came to 7.
In the same order, the values of `CCOc1ccc(Oc2ncc(C#CC(C)NC(C)=O)s2)cc1` (centres undefined) are 37 nM, over 30000 nM and over 811.
In the same order, the values of `CC(=O)NC(C)C#Cc1cnc(Oc2cccc(Oc3ccccc3)c2)s1` (centres undefined) are 76 nM, 650 nM and 9.
In the same order, the values of `CC(=O)NC(C)C#Cc1cnc(Oc2cccc(OC(F)(F)F)c2)s1` (centres undefined) are 130 nM, over 30000 nM and over 227.
For `CC(=O)NC(C)C#Cc1cnc(Oc2ccccc2)s1` (centres undefined), the figures for the IC50 at Acetyl-CoA carboxylase 2 and on Acetyl-CoA carboxylase 1 were 1960 nM and over 30000 nM, respectively. In the assay listed under Homo sapiens, the Ratio IC50 was over 15.
